From patent US20090318468A1, “PYRAZOLE COMPOUNDS 436” (AstraZeneca AB, priority 2008, published 2009)
Several values for one entry are separate records, joined by “and”; a condition that tells them apart may be missing. Identical values can stand only once.

Biological target: FGFR4 (Homo sapiens, UniProt P22455)
Experiment: Cell FGFR4 (ECHO) Assay: inhibition of transiently expressed FGFR4 phosphorylation in Cos-1 cells
Type: cell-based
Parameters: expressed in transfected cells; host or cells: Cos-1
Settings: Cos-1 cells transiently expressing FGFR4, 1 hour incubation; read-out: IC50 (inhibition of phosphorylated FGFR4)
Description: Cell based inhibition of transiently expressed FGFR4 phosphorylation via use of ECHO technology (measured using phospho-specific primary and fluorescent secondary antibodies).
This assay is designed to detect inhibitors of transiently expressed FGFR4 phosphorylation by antibody staining of fixed cells detected using ArrayScan technology. Cos-1 cells were routinely passaged in DMEM (Gibco BRL, 41966) plus 3% foetal calf serum (FCS), 1% L-glutamine (Gibco BRL, 25030) to a confluence of 80%. To undertake the assay, Cos-1 cells were harvested at 90-95% confluence for cell transfection. For each 96-well plate, 24 μL Lipofectamine 2000 was added to 809 μL OptiMEM and incubated at room temperature for 5 minutes. For each 96 well plate, 20 μg 3′ FLAG tagged FGFR4/pcDNA3.1 (MSD 6273) was diluted with OptiMEM to a total volume of 833 μL. Equal volumes of DNA and Lipofectamine 2000 were combined (DNA:Lipid=1:1.2 ratio) and incubated at room temperature for 20 minutes.
The harvested Cos-1 cells are counted using a coulter counter and diluted further with 1% FCS/DMEM to 1.2×10^5 cells/mL. For each 96-well, 8.33 mL cells were required. […]
Media was removed from the wells using vacuum aspiration; cells were fixed by adding 50 μL of 100% methanol to each well and incubated at room temperature for 20 minutes. […] The plates were read on an Arrayscan (Cellomics). […]

FGFR4, sequence (P22455 22-802): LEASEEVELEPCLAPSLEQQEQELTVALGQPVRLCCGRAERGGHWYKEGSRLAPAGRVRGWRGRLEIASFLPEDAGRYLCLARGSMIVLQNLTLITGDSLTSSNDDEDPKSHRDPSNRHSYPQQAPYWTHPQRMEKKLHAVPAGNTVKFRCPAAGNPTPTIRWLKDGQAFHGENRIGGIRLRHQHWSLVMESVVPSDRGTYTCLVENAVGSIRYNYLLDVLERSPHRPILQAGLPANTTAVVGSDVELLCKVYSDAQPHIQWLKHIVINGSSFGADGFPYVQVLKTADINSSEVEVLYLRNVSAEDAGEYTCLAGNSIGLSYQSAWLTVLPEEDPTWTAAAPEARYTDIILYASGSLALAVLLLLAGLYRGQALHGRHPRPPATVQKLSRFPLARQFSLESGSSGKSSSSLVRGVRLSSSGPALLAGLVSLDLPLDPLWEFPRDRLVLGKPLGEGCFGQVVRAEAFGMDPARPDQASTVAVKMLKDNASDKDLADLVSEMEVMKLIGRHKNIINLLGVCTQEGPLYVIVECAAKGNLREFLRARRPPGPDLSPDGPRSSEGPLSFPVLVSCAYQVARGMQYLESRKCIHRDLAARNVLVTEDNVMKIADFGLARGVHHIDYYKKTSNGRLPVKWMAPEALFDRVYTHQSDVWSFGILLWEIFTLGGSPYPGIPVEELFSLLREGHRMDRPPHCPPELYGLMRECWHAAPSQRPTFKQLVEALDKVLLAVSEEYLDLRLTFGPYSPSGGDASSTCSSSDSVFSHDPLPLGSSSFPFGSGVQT

IC50: 29 nM and 33 nM and 45 nM and 28 nM
Compound: COc1cc(CCc2cc(NC(=O)c3ccc(N4CCN(C)[C@H](C)C4)cc3)[nH]n2)cc(OC)c1 [Example 1b, (R)—N-(3-(3,5-Dimethoxyphenethyl)-1H-pyrazol-5-yl)-4-(3,4-dimethylpiperazin-1-yl)benzamide]
